The values that follow come from US20140178315A1, “Topical Compositions Comprising Ionic Fluids” (Arch Chemicals, Inc., priority 2012, published 2014).

For the series the following is noted: 3 g salt added to 21 g anhydrous betaine glycolate ionic fluid; heated at 105° C. for 2 hours; remained a viscous fluid after cooling to room temperature.

For `C[N+](C)(C)CC(=O)O.O=c1cc(CO)occ1[O-]` [betaine kojiate], the “Solubility of betaine kojiate in betaine glycolate ionic fluid (appearance of the mixture)” value is reported as “formed a clear fluid”.
